Experimental findings from patent US9687539B2, “CD4+ T survivin epitopes and uses thereof” (Commissariat a I'Energie Atomique, priority 2005, dated 2017) are described below.

The target in assay [1] is HLA-DR11 (DRB1*1101) (Homo sapiens, UniProt P01903+P01911, A100R/A169T/A87E/I96F/K41T/L162R/M171V/P40S/Q125H/Q178H/Q39Y/Q99D/R42S/S66Y/T262R/V115G/W38E). Description: biochemical. To be noted: competition with biotinylated tracer; 3 independent experiments; read-out: Binding activity DR11 (IC50).
For assay [2], the target named is HLA-DRB4 (DRB4*0101) (Homo sapiens, UniProt P01903+P13762, G164S). Put plainly: Competitive HLA II/peptide binding assay, HLA-DRB4. To be noted: competition with biotinylated tracer; 3 independent experiments.
Assay [3] has as its target T1, HLA-DP401 (DP*0401) (Homo sapiens, UniProt P04440+P20036).
T1 sequence (P04440 30-258): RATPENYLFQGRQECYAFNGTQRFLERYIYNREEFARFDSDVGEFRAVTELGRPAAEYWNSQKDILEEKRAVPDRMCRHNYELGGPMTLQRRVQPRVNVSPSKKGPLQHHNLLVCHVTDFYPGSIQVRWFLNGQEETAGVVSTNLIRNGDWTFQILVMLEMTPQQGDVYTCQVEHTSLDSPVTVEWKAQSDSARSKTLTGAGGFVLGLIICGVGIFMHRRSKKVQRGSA
T1 sequence (P20036 29-260): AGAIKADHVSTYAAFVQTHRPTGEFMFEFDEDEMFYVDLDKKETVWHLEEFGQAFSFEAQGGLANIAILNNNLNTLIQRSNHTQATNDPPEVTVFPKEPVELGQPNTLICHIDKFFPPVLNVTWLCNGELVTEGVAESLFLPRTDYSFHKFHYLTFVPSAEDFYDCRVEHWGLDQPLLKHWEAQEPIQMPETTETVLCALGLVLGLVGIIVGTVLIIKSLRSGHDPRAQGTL
Put plainly: biochemical. The following applies: competition with biotinylated tracer; 3 independent experiments; read-out: Binding activity DP401 (IC50).

For assay [4], the target named is HLA-DR15 (DRB1*1501) (Homo sapiens, UniProt P01903+P01911). Description: Competitive HLA II/peptide binding assay, HLA-DR15. The following applies: competition with biotinylated tracer; 3 independent experiments.
Assay [5] addresses T2, HLA-DP402 (DP*0402) (Homo sapiens, UniProt P04440+P20036, A65V/A84D/A85E/L207M).
T2 sequence (P04440 30-258 A65V/A84D/A85E): T1 sequence (P04440 30-258) with A36V, A55D, A56E
T2 sequence (P20036 29-260): T1 sequence (P20036 29-260)
Description: biochemical. To be noted: competition with biotinylated tracer; 3 independent experiments; read-out: Binding activity DP402 (IC50).

Assay [6] addresses HLA-DRB5 (DRB5*0101) (Homo sapiens, UniProt P01903+Q30154). Description: Competitive HLA II/peptide binding assay, HLA-DRB5. The following applies: competition with biotinylated tracer; 3 independent experiments.
Assay [7] has as its target HLA-DR3 (DRB1*0301) (Homo sapiens, UniProt P01903+P01911, A100K/A102G/A103R/A169T/F55Y/I96L/K41T/L162R/M171V/P40S/Q125H/Q178H/Q39Y/R42S/S66N/T106N/T262R/W38E/Y61H). Description: biochemical. The following applies: competition with biotinylated tracer; 3 independent experiments; read-out: Binding activity DR3 (IC50).
The target of assay [8] is HLA-DRB3 (DRB3*0101) (Homo sapiens, UniProt P01903+P79483). Put plainly: Competitive HLA II/peptide binding assay, HLA-DRB3. The following applies: competition with biotinylated tracer; 3 independent experiments.
Assay [9] deals with HLA-DR13 (DRB1*1301) (Homo sapiens, UniProt P01903+P01911, A100E/A169T/K41T/L162R/M171V/P40S/Q125H/Q178H/Q39Y/Q99D/R42S/S66N/T262R/W38E/Y61H). Put plainly: Competitive HLA II/peptide binding assay, HLA-DR13. To be noted: competition with biotinylated tracer; 3 independent experiments; read-out: Binding activity DR13 (IC50).
For assay [10], the target named is HLA-DR4 (DRB1*0401) (Homo sapiens, UniProt P01903+P01911, A100K/A169T/F76Y/I96L/K127E/L162R/M171V/N62H/P40V/Q125Y/R42H/S133A/S149N/S66Y/V115G/V209L/W38E). Put plainly: Competitive HLA II/peptide binding assay, HLA-DR4. The following applies: competition with biotinylated tracer; 3 independent experiments.
The target of assay [11] is HLA-DR1 (DRB1*0101) (Homo sapiens, UniProt P01903+P01911, A100R/D57E/F55L/F60I/F76Y/I96L/L162R/M171V/P40L/Q125E/R42F/V115G/Y59C). Description: Competitive HLA II/peptide binding assay, HLA-DR1. The following applies: competition with biotinylated tracer; 3 independent experiments.
Assay [12] concerns the target HLA-DR7 (DRB1*0701) (Homo sapiens, UniProt P01903+P01911, A100R/A102G/A103Q/D57E/D86V/E43K/F76Y/K127E/L162R/M171V/P40G/Q125H/Q99D/R33Q/R42Y/R54Q/S133A/S66F/T210M/V115G/Y107V/Y59L/Y89S). Put plainly: biochemical. The following applies: competition with biotinylated tracer; 3 independent experiments; read-out: Binding activity DR7 (IC50).
In assay [13] the test system is 12 predominant HLA II molecules. Put plainly: Binding to the 12 predominant HLA II molecules, summary. Also noted: species or system human. The following applies: number of the 12 predominant HLA II molecules bound (IC50 < 1000 nM). From the text:
The assays for binding to HLA II molecules are competitive binding assays with immunoenzymatic visualization, as described in U.S. Pat. No. 6,649,166, Texier et al., J. Immunol., 2000, 164, 3177-3184 and Texier et al., Eur. J. Immunol., 2001, 31, 1837-1846, for the HLA-DR molecules, and in PCT international application WO 03/040299 and Castelli et al., J. Immunol., 2002, 169, 6928-6934, for the HLA-DP4 molecule. The use of these assays for measuring the binding activity of peptides derived from various antigens is illustrated in U.S. Pat. No. 6,649,166 and PCT international applications WO 02/090382, WO 03/040299 and WO 2004/014936.
The sensitivity of each assay is reflected by the IC50 values observed with the nonbiotinylated peptides which correspond to the tracers; the IC50 values of the tracers vary by a factor of less than three.

Where a chain is given by its changes, count along the chain named. No end group written: not given here.

For the sequence “EGWEPDDDPIEEHKK [65-79, E G W E P D D D P I E E H K K]”, the IC50 in assay [1], in [2], in [3], in assay [4], in assay [5] and in assay [6] was above 100 µM in each case. Further, the IC50 in [7], in assay [8], in [9], in assay [10], in assay [11] and in assay [12] was above 100 µM throughout. Moreover, the “No. of molecules fixed” value in [13] was 0.
Turning to “KELEGWEPDDDPIEE [62-76, K E L E G W E P D D D P I E E]”, the half-inhibitory concentration (IC50) in assay [1] is above 100 µM; in [2] it was above 100 µM; in assay [3] it was above 100 µM; in assay [4], 65 µM; in assay [5] it was above 100 µM; in assay [6] it was above 100 µM. The IC50 was above 100 µM in assay [7]; 29 µM in assay [8]; above 100 µM in assay [9]; above 100 µM in assay [10]; above 100 µM in assay [11]; above 100 µM in assay [12]. Moreover, in [13], the “No. of molecules fixed” value is recorded as 0.
